Assays:
[1] = Stability in human plasma; settings: after 4 hours, 37° C.
Method: In order to evaluate the stability to circulating enzymes, test compounds were incubated in human and rat plasma at 37° C. in a thermostated oscillating bath. Each test compound was incubated at μM concentration (50 μM when the samples were analysed by UV/HPLC, 1 or 2 μM when the samples were analysed by LC-MS/MS) for 0, 15, 30 minutes and 1, 2 and 4 hours. The reaction was stopped placing samples on ice bath and adding acidified acetonitrile. After centrifugation (10 minutes at 14000 rpm) an aliquot of the supernatant was diluted with water, filtered with 0.45 μm regenerated cellulose syringe filters and injected in HPLC-UV or in LC-MS/MS. The percentage of the remaining amount at the various incubation times with respect to the initial amount were calculated. The half-life in plasma was also calculated.

[2] = Stability to Phase I metabolism in rat S9 liver fraction; settings: after 90 minutes, 37° C.
[3] = molecular target: recombinant human HDAC6 (Homo sapiens (Human), UniProt Q9UBN7); assay: Enzymatic screening, HDAC6 inhibition (fluorogenic FdL_G substrate); assay type: biochemical
Procedure, shortened: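 Enzyme was preincubated with compound (8 doses, triplicate, 1% DMSO) in 25 mM Tris-HCl pH 8, 130 mM NaCl, 0.05% Tween-20, 10% glycerol, with BSA. A FLUOR DE LYS-Green substrate was then added, and fluorescence was read after developer plus 2 μM TSA.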

[4] = Stability in rat plasma; settings: after 4 hours, 37° C.
[5] = molecular target: recombinant human HDAC1 (Homo sapiens (Human), UniProt Q13547); assay: Enzymatic screening, HDAC1 inhibition (fluorogenic FdL_G substrate); assay type: biochemical
Procedure, shortened: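 Recombinant human HDAC1 inhibition was measured fluorometrically using the FLUOR DE LYS-Green (FdL_G) substrate. Compounds at 8 doses (1% DMSO final) in Tris-HCl pH 8 buffer with NaCl, Tween-20 and glycerol were preincubated in triplicate with enzyme and 1 mg/mL BSA, then given substrate. Developer I plus 2 μM TSA was added, and fluorescence read after 25 minutes in the dark.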

[6] = system: α-tubulin acetylation in 697 cell line; assay: In vitro α-tubulin acetylation in 697 cell line (ELISA); assay type: cell-based; settings: 16 hours, read-out: fold increase @ 1 uM TubAc (ratio of acetylated tubulin and total tubulin towards control)
Method: The in vitro α-tubulin acetylation determination was evaluated on B 697 promyelocytic cell line.
The test molecules were diluted from 20 mM stock solution in DMSO with RPMI 10% FCS+0.01% DMSO medium at 20× concentration compared to the final concentration, added to the cells (15×10^6 cells in a total volume of 30 mL in RPMI medium 10% FCS+0.01% DMSO) to obtain the final concentrations of 1000, 333, 111, 37 nM and incubated at 37° C., 5% CO2 for 16 hours.
At the end of the incubation period, 5×10^6 cells were taken from each sample, centrifuged for 5 minutes at 1100 rpm and washed in 0.9% NaCl at 4° C. The resulting pellet was lysed by treating at 4° C. for 30 minutes with 150 μl of Complete Lysis-M buffer containing protease inhibitors (Complete Lysis-M Roche+Complete Tablets, Mini Easypack, cat: 4719956001) and phosphatase inhibitor cocktails (PhosStop Easypack, Roche, cat: 4906837001), then centrifuged 10 minutes at 14,000 rpm (20817×g). 0.3 μg of supernatant (total protein extract) were diluted in 100 μl of 1×PBS and immobilized in Maxisorp F96 NUN-IMMUNO Plate (Nunc MaxiSorp flat-bottom, Nunc, cat: 442404) at room temperature overnight. Plates were washed twice with Wash Buffer (PBS1×+0.005% tween 20) and saturated for 1 hour at room temperature with 300 μL of 1×PBS containing 10% FCS. After washing twice with Wash Buffer, the plates were incubated for two hours at room temperature in the presence of anti-acetylated-α-tubulin antibody (Monoclonal Anti-acetylated-tubulin clone 6-11B-1, mouse ascites fluid, Sigma, cat: T6793), 100 μl/well diluted 1:1000 in 1×PBS containing 10% FCS) or with total anti-α-tubulin antibody (Monoclonal Anti-alpha-tubulin produced in mouse, Sigma, cat: T6074). Following washing of the pates 5 times with Wash Buffer the secondary antibody conjugated with the enzyme HRP (Goat anti-Mouse IgG, IgM, IgA (H+L), Thermo Fisher Scientific, cat: A10668), diluted 1:1000 in 1×PBS+10% FBS was added at the volume of 100 μl/well.
After washing 4 times, 100 μl/well of TMB substrate kit was added for 10 minutes at room temperature in the dark. The reaction was stopped by adding 50 μl of 2N H2SO4. The plates were read at Multiskan Spectrum spectrophotometer at a wavelength of 450 nm.
The degree of acetylation was calculated by dividing the absorbance obtained for acetylated α-tubulin by the absorbance of total tubulin.
The results of tubulin acetylation, expressed as fold increase of ratio of acetylated α-tubulin/total α-tubulin, of each sample relative to the control sample (untreated) are summarized in table 6.

[7] = Stability to Phase I metabolism in human S9 liver fraction; settings: after 90 minutes, 37° C.

Sequence of recombinant human HDAC6 (Q9UBN7 whole entry): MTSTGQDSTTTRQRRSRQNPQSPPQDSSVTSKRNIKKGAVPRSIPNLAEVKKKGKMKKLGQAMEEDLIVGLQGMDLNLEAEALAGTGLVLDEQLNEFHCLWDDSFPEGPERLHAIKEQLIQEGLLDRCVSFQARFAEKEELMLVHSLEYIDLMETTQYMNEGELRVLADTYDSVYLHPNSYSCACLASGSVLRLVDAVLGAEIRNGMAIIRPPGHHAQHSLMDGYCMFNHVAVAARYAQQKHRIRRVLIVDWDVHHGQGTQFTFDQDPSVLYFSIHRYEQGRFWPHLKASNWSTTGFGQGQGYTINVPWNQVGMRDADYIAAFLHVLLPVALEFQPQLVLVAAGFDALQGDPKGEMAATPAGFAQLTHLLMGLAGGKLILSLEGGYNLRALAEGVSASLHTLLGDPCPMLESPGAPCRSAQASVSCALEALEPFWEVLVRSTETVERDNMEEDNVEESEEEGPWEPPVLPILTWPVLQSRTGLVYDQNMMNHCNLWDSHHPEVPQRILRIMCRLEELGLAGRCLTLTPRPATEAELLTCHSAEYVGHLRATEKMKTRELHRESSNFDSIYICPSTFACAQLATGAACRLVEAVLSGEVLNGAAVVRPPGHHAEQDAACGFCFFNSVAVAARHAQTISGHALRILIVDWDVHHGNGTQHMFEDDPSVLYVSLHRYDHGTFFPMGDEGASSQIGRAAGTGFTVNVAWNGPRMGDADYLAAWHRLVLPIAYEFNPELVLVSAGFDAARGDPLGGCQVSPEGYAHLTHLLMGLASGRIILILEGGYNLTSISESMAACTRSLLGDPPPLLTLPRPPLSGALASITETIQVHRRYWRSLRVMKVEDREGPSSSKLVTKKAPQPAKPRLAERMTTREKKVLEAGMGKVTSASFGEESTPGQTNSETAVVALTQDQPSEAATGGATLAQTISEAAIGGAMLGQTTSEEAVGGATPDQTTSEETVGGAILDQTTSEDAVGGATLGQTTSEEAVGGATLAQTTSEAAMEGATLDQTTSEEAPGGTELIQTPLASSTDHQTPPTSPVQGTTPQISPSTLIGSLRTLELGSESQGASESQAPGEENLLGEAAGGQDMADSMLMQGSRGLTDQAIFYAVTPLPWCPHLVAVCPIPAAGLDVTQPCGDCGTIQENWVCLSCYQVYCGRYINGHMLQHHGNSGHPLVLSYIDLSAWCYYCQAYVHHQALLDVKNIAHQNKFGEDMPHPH
Sequence of recombinant human HDAC1 (Q13547 whole entry): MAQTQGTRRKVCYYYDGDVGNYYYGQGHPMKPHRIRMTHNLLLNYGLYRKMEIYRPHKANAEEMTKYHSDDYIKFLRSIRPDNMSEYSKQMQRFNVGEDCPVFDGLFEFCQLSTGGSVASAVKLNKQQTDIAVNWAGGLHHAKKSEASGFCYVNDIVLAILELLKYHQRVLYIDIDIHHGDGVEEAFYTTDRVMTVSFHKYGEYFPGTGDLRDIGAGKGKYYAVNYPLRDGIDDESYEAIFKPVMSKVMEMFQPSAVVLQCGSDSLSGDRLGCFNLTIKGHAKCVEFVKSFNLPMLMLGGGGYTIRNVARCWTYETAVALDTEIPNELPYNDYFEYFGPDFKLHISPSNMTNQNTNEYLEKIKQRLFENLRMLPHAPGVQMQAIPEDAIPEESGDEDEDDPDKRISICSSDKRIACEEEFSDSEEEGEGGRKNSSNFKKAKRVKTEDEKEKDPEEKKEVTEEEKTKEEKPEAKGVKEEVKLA

Compound | residual percentage in HUMAN PLASMA [1] [%] | residual percentage in RAT S9 FRACTION [2] [%] | IC50 [3] [nM] | residual percentage in RAT PLASMA [4] [%] | IC50 [5] [µM] | fold induction at 1 µM [6] | residual percentage in HUMAN S9 FRACTION [7] [%]
Nc1ccc(-c2cn(C(CN3CCCC3)c3ccc(-c4nnc(C(F)F)o4)cc3)nn2)cn1 (centres unmarked) [Compd. 124, 5-(1-(1-(4-(5-(difluoromethyl)-1,3,4-oxadiazol-2-yl)phenyl)-2-(pyrrolidin-1-yl)ethyl)-1H-1,2,3-triazol-4-yl)pyridin-2-amine] | 94 | 96 | 47 | 92 | > 200 | 13 | 91
Nc1ccc(-c2cn(Cc3ccc(-c4nnc(C(F)F)o4)c(F)c3)nn2)cn1 [compound 15, 5-(1-(4-(5-(difluoromethyl)-1,3,4-oxadiazol-2-yl)-3-fluorobenzyl)-1H-1,2,3-triazol-4-yl)pyridin-2-amine] | 81 | 79 | – | 72 | – | 16 | 91
NC(=O)c1ccc(-c2nnn(Cc3ccc(-c4nnc(C(F)F)o4)cc3)n2)cc1 [compound 116, 4-(2-(4-(5-(difluoromethyl)-1,3,4-oxadiazol-2-yl)benzyl)-2H-tetrazol-5-yl)benzamide] | 82 | 71 | 44 | 75 | > 200 | 5 | 92
O=C1Nc2ccc(-c3cn(Cc4ccc(-c5nnc(C(F)F)o5)cn4)nn3)cc2C12CCNC2 (single isomer, unassigned) [compound 274, 5-(1-((5-(5-(difluoromethyl)-1,3,4-oxadiazol-2-yl)pyridin-2-yl)methyl)-1H-1,2,3-triazol-4-yl)spiro[indoline-3,3′-pyrrolidin]-2-one] | 83 | 97 | 11 | 83 | > 200 | 12 | 95
Nc1nc2ccc(-c3cn(Cc4ccc(-c5nnc(C(F)F)o5)cc4)nn3)cc2s1 [compound 14, 6-(1-(4-(5-(difluoromethyl)-1,3,4-oxadiazol-2-yl)benzyl)-1H-1,2,3-triazol-4-yl)benzo[d]thiazol-2-amine] | 72 | 95 | – | 83 | – | 19 | 93
NC(=O)c1cccc(-c2nnn(Cc3ccc(-c4nnc(C(F)F)o4)cn3)n2)c1 [compound 29, 3-(2-((5-(5-(difluoromethyl)-1,3,4-oxadiazol-2-yl)pyridin-2-yl)methyl)-2H-tetrazol-5-yl)benzamide] | – | – | – | – | – | 15 | –
CC(=O)Nc1cc(-c2nnn(Cc3ccc(-c4nnc(C(F)F)o4)cc3)n2)cnc1C [compound 133, N-(5-(2-(4-(5-(difluoromethyl)-1,3,4-oxadiazol-2-yl)benzyl)-2H-tetrazol-5-yl)-2-methylpyridin-3-yl)acetamide] | 88 | 78 | 51 | 69 | > 200 | – | 98
FC(F)c1nnc(-c2ccc(Cn3cc(-c4ccc5[nH]c(N6CCOCC6)nc5c4)nn3)cc2)o1 [Compd. 174, 4-(5-(1-(4-(5-(difluoromethyl)-1,3,4-oxadiazol-2-yl)benzyl)-1H-1,2,3-triazol-4-yl)-1H-benzo[d]imidazol-2-yl)morpholine] | 88 | 72 | 87 | 80 | > 200 | – | 91
CC(=O)c1cccc(-c2nnn(Cc3ccc(-c4nnc(C(F)F)o4)cc3)n2)c1 [compound 140, 1-(3-(2-(4-(5-(difluoromethyl)-1,3,4-oxadiazol-2-yl)benzyl)-2H-tetrazol-5-yl)phenyl)ethan-1-one] | 99 | 0 | 55 | 58 | > 200 | – | 87
CCNC(=O)c1cccc(-c2nnn(Cc3ccc(-c4nnc(C(F)F)o4)cc3)n2)c1 [compound 91, 3-(2-(4-(5-(difluoromethyl)-1,3,4-oxadiazol-2-yl)benzyl)-2H-tetrazol-5-yl)-N-ethylbenzamide] | 78 | 68 | 35 | 93 | > 200 | – | 74
CC(c1ccc(-c2nnc(C(F)F)o2)cc1)n1cc(-c2ccc(N)nc2)nn1 (centres unmarked) [Compd. 117, 5-(1-(1-(4-(5-(difluoromethyl)-1,3,4-oxadiazol-2-yl)phenyl)ethyl)-1H-1,2,3-triazol-4-yl)pyridin-2-amine] | 92 | 71 | 44 | 74 | > 200 | – | 93
CC(c1ccc(-c2nnc(C(F)F)o2)cc1F)n1cc(-c2ccc(N)nc2)nn1 (centres unmarked) [compound 185, 5-(1-(1-(4-(5-(difluoromethyl)-1,3,4-oxadiazol-2-yl)-2-fluorophenyl)ethyl)-1H-1,2,3-triazol-4-yl)pyridin-2-amine] | 97 | 69 | 96 | 62 | > 200 | – | 86
Nc1ccc(-c2nc(Cc3ccc(-c4nnc(C(F)F)o4)cc3)no2)cn1 [compound 247, 5-(3-(4-(5-(difluoromethyl)-1,3,4-oxadiazol-2-yl)benzyl)-1,2,4-oxadiazol-5-yl)pyridin-2-amine] | 99 | 65 | 272 | 81 | > 200 | – | 98
CC(c1ccc(-c2nnc(C(F)F)o2)cn1)n1cc(-c2ccc(N)nc2)nn1 (centres unmarked) [Compd. 59, 5-(1-(1-(5-(5-(difluoromethyl)-1,3,4-oxadiazol-2-yl)pyridin-2-yl)ethyl)-1H-1,2,3-triazol-4-yl)pyridin-2-amine] | 87 | 97 | 24 | 83 | > 200 | – | 98
CCNc1nc2ccc(-c3cn(Cc4ccc(-c5nnc(C(F)F)o5)cc4)nn3)cc2[nH]1 [compd. 60, 6-(1-(4-(5-(difluoromethyl)-1,3,4-oxadiazol-2-yl)benzyl)-1H-1,2,3-triazol-4-yl)-N-ethyl-1H-benzo[d]imidazol-2-amine] | 76 | 94 | 26 | 81 | 32.9 | – | 70

— patent publication US20230286970A1, “NOVEL OXADIAZOLE-BASED SELECTIVE HDAC6 INHIBITORS” (ITALFARMACO S.P.A., priority 2020, published 2023)
